# Data published in patent US8076101B2, “Method of detecting the cystic fibrosis transmembrane conductance regulator (CFTR) at cell exterior” (priority 2003, dated 2011).
# “Also recorded” adds a separate entry of the source. Residues, ends and D or L forms follow the SMILES beside them. *: point of attachment. Cbz = O=C(OCc1ccccc1)*
# Legend:
# Format in all cases: cell-based
# [1] = test system: XT-ΔF508 CFTR; assay: cyclic AMP stimulated 36Cl efflux (CFTR chloride channel activity); conditions: grown at 28° C. with 2 mM sodium butyrate for 48 h; forskolin (10 μM) and IBMX (1 mM)
# Protocol: FIG. 5. CFTR chloride channel activity as monitored by ^36Cl efflux from cells expressing wild-type CFTR (◯), ΔF508 CFTR without (♦) or with (▴) 2 mM sodium butyrate or no CFTR (□). Cells were preloaded with ^36Cl and then exposed to forskolin (10 μM) and IBMX (1 mM) at time 0. The amounts of ^36Cl radioactivity released from the cells in subsequent 1 min intervals was monitored by scintillation counting.
# To determine the functional capability of the EL2 modified variants, rates of cyclic AMP stimulated ^36Cl efflux from cells expressing them were measured. The rate of efflux from cells expressing wild-type XT-CFTR was similar to that with unmodified wild-type (FIG. 5).
# [2] = test system: ΔF508 CFTR with modified EL2 (XT-ΔF508); assay: Quantitative luminescence detection of XT-ΔF508 CFTR at surface of cells in 96 well microtiter plates
# Protocol: FIG. 6. Quantitative detection of CFTR with EL2 epitope (XT-CFTR) at surface of cells grown in 96 well microtiter plates. Cells were washed, fixed and exposed to an antibody recognizing the external epitope, washed again and incubated with a horseradish peroxidase coupled second antibody and then with a peroxidase substrate that becomes luminescent after peroxidation. Luminescent signals in each well were quantitated in either a Packard Microplate Luminescence Counter or a Perkin Elmer VICTOR^2 Multilabel Counter. […] The corresponding quantitative signals are shown below.
# To provide a more facile and quantifiable means of detecting EL2 modified CFTR on the cell surface, cells were plated on 96-well microtiter plates. The amount of surface epitope was measured either by luminometry or time resolved fluorescence. After incubation with a primary unlabeled mouse antibody to the epitope (HA11, Babco) and washing, a secondary horseradish peroxidase coupled antibody recognizing mouse IgG was added followed by peroxidase substrate that luminesces when peroxidized. Luminescence was measured in each well in one of two different luminescence plate readers. A strong signal is obtained in the replicate row of wild-type XT-CFTR expressing cells and signals of strengthening intensity are obtained in rows of XT-ΔF508 cells grown at 28° C. with increasing concentrations of butyrate.
# [3] = test system: Extope-ΔF508 CFTR; assay: Immunofluorescence microscopy of externally labeled Extope-ΔF508 CFTR after re-incubation with protease inhibitors; conditions: re-incubated at 37° C. for 7 hours
# Protocol: FIG. 10B. […] Cell surface Extope-CFTR or Extope-ΔF508 CFTR were labeled with 16B12 as described in FIG. 2A. Cells were re-incubated at 37° C. for 7 hours with either lysosomal inhibitors pepstatin-A and leupeptin (Pep+Leu, each 50 μg/ml) and E64 (3.5 μg/ml) or proteasomal inhibitors lactacystin (50 μM) and MG132 (50 μM) or without drug (control) and stained for immunofluorescence microscopy. Nuclei were stained with propidium iodide.
# Cells were treated with lysosomal inhibitors pepstatin-A and leupeptin as described in FIG. 5B. Extope-ΔF508 CFTR was labeled with 16B12 at the cell surface and detected 7 hours later using goat anti-mouse IgG Alexa Fluor 488 conjugate. Lysosomes were labeled with Lysotracker Red (Molecular Probes).
# [4] = test system: Extope-CFTR and ΔF508 CFTR; assay: Chemiluminescence assay of cell surface Extope-CFTR and ΔF508 CFTR retained after reincubation; conditions: lactacystin 25 μM, reincubated for indicated times, 8 replicates
# Protocol: FIG. 10D. […] Extope-CFTR and ΔF508 CFTR were labeled on intact pre-cooled cells on ice for 30 minutes with 16B12 mAb and cells were reincubated in the presence or absence of lactacystin (25 μM) for indicated times. Cell surface Extope-CFTR was detected in a chemiluminescence assay at indicated times using sheep anti-mouse peroxidase conjugate and chemiluminescence. Each experiment was performed with 8 replicates and standard deviations are indicated.
smiles,measurement,setting,value
CCCC(=O)[O-].[Na+] [sodium butyrate],36Cl efflux from ΔF508 CFTR expressing cells relative to wild-type,[1],more closely approaches those of wild-type; also recorded: nearly as great as from cells expressing wild-type CFTR
same,amount of ΔF508 CFTR with modified EL2 detected at the cell surface (luminescent signal),"[2]; cells grown at 28° C. for 24 h, increasing concentrations of sodium butyrate",Increasing amounts
same,XT-ΔF508 surface luminescence signal relative to wild-type XT-CFTR,"[2]; cells grown at 28° C., maximal butyrate dose",more than half that of the wild-type
CC(=O)N[C@@H](CSC(=O)[C@]1([C@@H](O)C(C)C)NC(=O)[C@H](C)[C@@H]1O)C(=O)O [lactacystin],endocytic turn over of ΔF508-CFTR,[3]; 50 μM,inhibit endocytic turn over
same,amount of CFTR retained at the cellular surface,[4],increases the amount of CFTR retained at the cellular surface
CC(C)C[C@H](NC(=O)[C@H]1O[C@@H]1C(=O)O)C(=O)NCCCCN=C(N)N [E64],endocytic turn over of ΔF508-CFTR,[3]; 3.5 μg/ml,inhibit endocytic turn over
CC(C)C[C@@H](C=O)NC(=O)[C@H](CC(C)C)NC(=O)[C@H](CC(C)C)NC(=O)OCc1ccccc1 [MG132] (Cbz-Leu-Leu-Leu-aldehyde),endocytic turn over of ΔF508-CFTR,[3]; 50 μM,inhibit endocytic turn over
